Data from patent publication US12391643B2, “Substituted amino-thiol and amino-disulfide compounds, and uses thereof” (The Regents of the University of California, priority 2019, dated 2025).

Experiments:
[1] = tested on: cystinotic fibroblasts; experiment: Cystine depletion during constant drug exposure in cystinotic fibroblasts; assay type: cell-based, human; conditions: 100 uM constant exposure, 0-5 h; vs cystamine
Experimental: (§1) In vitro experiments with isotopically enriched cystamine in cystinotic fibroblasts. Fibroblasts from a de-identified cystinotic patient were split 3× from 2 plates into 36 plates. Three different drugs were used for the experiments: cystamine (non-labeled), d2-cystamine, and d4-cystamine. There were two time series for each drug. The first was with constant drug incubation and included: 0, 10 min, 30 min, 1 h, 3 h, and 5 h. The other series included a washout after 3 h drug incubation, using fresh media following a PBS wash, and included the timepoints: 0, 30 min, 1 h, 3 h, 5 h, and 17 h. A direct quench and extraction technique were used for harvesting all cells to minimize further oxidation and metabolism. This included 2× washes with PBS that included 5 mM N-ethylmaleimide for trapping free thiol groups, and then scraping the plates with an acidified organic solvent extraction solution containing both d4-cystine and d4-cysteamine (plus d-8 cystamine) as internal standards. All samples were run on an API 4500 triple quadrupole LC-MS/MS, with selective reaction monitoring (SRM/MRM) for the following compounds of interest: cystine, NEM-cysteamine, NEM-cysteine, cystamine, and 2-(methylthio)ethylamine. All data fit well to single exponential curves (either decay or association), except where mentioned.
Following incubation, cells were washed 2× in PBS containing N-ethylmaleimide.
(§2) Fibroblasts from a de-identified cystinotic patient were split 3× from 2 plates into 18 plates. Two different drugs were used for the experiments: D4n-cystamine, and D8-cystamine. There were two time series for each drug. The first was with constant drug incubation and included: 0, 15 min, 30 min, 1 hr, and 3 hr. The other series included a washout after 3 hours of drug incubation, using fresh media following a PBS wash, and included the time-points: 0, 1 hr, 3 hr, and 16 hr. A direct quench and extraction technique was used for harvesting all cells to minimize further oxidation and metabolism. […] All samples were run on an API 4500 triple quadruple LC-MS/MS, with selective reaction monitoring (SRM/MRM) for the following compounds of interest: cystine, NEM-cysteamine, NEM-cysteine, and cystamine. All data fit well to single exponential curves (either decay or association), except where mentioned.

[2] = tested on: cystinotic fibroblasts; experiment: Cystine re-accumulation after washout in cystinotic fibroblasts; assay type: cell-based, human; conditions: 100 uM for 3 h, then drug-free media up to 17 h; vs cystamine
Experimental: as §1
Cystine measurement after washout: Fibroblast cultures were exposed to 100 uM cystamine/d2-cystamine/d4-cystamine for 3 h. Following incubation, cells were washed with PBS, and then incubated with regular media (containing FBS) for the following timepoints: 0 min, 30 min, 1 h, 3 h, 5 h, and 17 h. Cells were harvested identically as described previously.
as §2
Fibroblast cultures were exposed to 50 μM cystamine (D8 or D4n) for 3 hours. Following incubation, cells were washed with PBS and then incubated with regular mediate containing FBS for 1 h, 3 h, and 16 h. Cells were harvested as above. […] Cystine reaccumulation between D4n-cystamine and D8-cystamine are very similar, indicating similar levels of drug remaining during the washout timepoints (FIG. 15).

[3] = Pharmacokinetics of cystamine and D4-cystamine in rats (monomer measured in plasma); assay type: in vivo, Sprague Dawley rats
Experimental: Pharmacokinetics of Cystamine in Rats.
In the experimental study 5 Sprague Dawley rats were used: 2 rats were used for control (non-deuterated cystamine) and 3 rats were used for the study compound (D4 cystamine).
Blood was sampled at 0, 20 min, 40 min, 1, 2, 4 and 6 hours (7 total samples per rat). Approximately 160 μl of whole blood was collected into an EDTA retro-orbital blood collection tube and briefly mixed to insure uniform mixing of EDTA. The blood was quickly transferred into a clean ependorf tube containing 40 μl of fresh 150 mM NEM, mixed and incubated at room temperature for 10 minutes. The Eppendorf tube was centrifuged at 3000 rmp for 5 minute sto pellet RBC and collect plasma into a fresh Eppendorf tube. The volume of the plasma was measured by pipette. Formic acid was added to the plasma to a concentration of 1% and mixed.

[4] = tested on: C57BL/6 male mice on CDAHFD diet; experiment: In vivo NASH model, treatment phase (8 weeks CDAHFD, then 2 weeks daily gavage); conditions: for Fatty deposits / fat globules in liver, H&E staining: 200 mg/kg/day
Experimental: Liver Inflammatory Cells. CD11b stains macrophages and microglia. CD11b staining of liver tissue was taken after 10 weeks of CDAHFD in three groups of mice. […] At 8 weeks, treatment group 2 (“C2”) mice started gavage feeding with D2-Cystamine at 200 mg/kg/day once daily gavage, and treatment group 3 (“C3”) mice received D4-Cystamine at 200 mg/kg/day by once daily gavage.
In vivo NASH Models. NASH models from normal C57BL/6 male mice on CDAHFD diet (choline deficient, L-amino acid defined, high fat diet with restricted amount of methionine) were used. Two deuterated cystamine molecules were tested:
Two phase study was performed: (1) A prevention and (2) a treatment phase. 48 Mice were separated into nine groups of mice as described below. Histology at end of each study was performed looking for specific features of NASH (steatohepatitis, ballooning, fibrosis). The primary endpoint was plasma ALT measurement. Gene expression studies for fibrosis, inflammation were also performed.
Prevention Phase. Group 1: Control mice on CDAHFD for 8 weeks. Blood drawn at 0, 4, and 8 weeks. Group 2: Mice on CDAHFD plus D2 at 200 mg/kg/day for 8 weeks. Blood drawn at 0, 4, and 8 weeks. Group 3: Mice on CDAHFD plus D4 at 200 mg/kg/day for 8 weeks. Blood drawn at 0, 4, and 8 weeks. Group 4: Control mice (n=4) continue on CDAHFD for 2 weeks. Blood at baseline and at 2 weeks. Liver histology at 2 weeks. Group 5: Mice (n=4) on CDAHFD for 2 weeks plus D2 at 200 mg/kg/day administered via daily gavage. Blood at 0 and 2 weeks and histology at 2 weeks. Group 6: Mice (n=4) on CDAHFD for 2 weeks plus D4 at 200 mg/kg/day administered via daily gavage. Blood at 0 and 2 weeks and histology at 2 weeks.
Treatment Study Results. Groups 4, 5 and 6 mice received 8 weeks of CDAHDF diet before beginning treatment with deuterated compounds of the disclosure. During the treatment phase the mice continued to receive CDAHDF diet. Four mice were set in each group: control (C1) not receiving any drug; treatment (C2) receiving 200 mg/kg of cystamine D2 by once daily gavage; and treatment (C3) receiving 200 mg/kg cystamine D4 by once daily gavage.

[5] = 200 mg/kg once daily gavage, 2 weeks

SMILES: [2H]C([2H])(CN)SSC([2H])([2H])CN [D4-Cystamine, 2,2′-disulfanediylbis(ethan-2,2-d2-1-aminium) chloride]
- Rate of intracellular cystine depletion, comparison in words [1]: nearly identical
- Cystine re-accumulation after washout, comparison in words [2]: very similar
- AUC relative to non-deuterated cystamine [3]: at least 1.6 ×
- Cmax relative to non-deuterated cystamine [3]: ~2 ×
- AUC of derived monomer, comparison in words ([3]; vs cystamine derived cysteamine): much higher
- ALT versus untreated control group [4, 5]: significantly lower
- Ratio of body weight to liver weight (BW/LW) at end of study versus control [4, 5]: statistically significant
- Hepatic fibrosis, Sirius Red staining of liver sections ([4]; 200 mg/kg once daily gavage, 2 weeks, listed as D4): significant reduction in the amount of positive liver staining
- Hepatic fibrosis, Sirius Red staining of liver sections ([4]; 200 mg/kg once daily gavage, 2 weeks, listed as cystamine D4): very significant reduction in hepatic fibrosis
- Number of CD11b positive cells in liver tissue versus control group ([4]; 200 mg/kg/day once daily gavage, 2 weeks): statistically significant reduction
- Fatty deposits / fat globules in liver, H&E staining ([4]; 2 weeks): reduction in fatty globules
- Fatty deposits / fat globules in liver, H&E staining ([4]; 2 weeks, listed as D4): reduced fatty deposits compared to control
- Pericentral fibrosis in liver ([4]; Sirius Red staining, 2 weeks): less pericentral fibrosis
- Collagen 1 expression, qPCR, versus control ([4]; liver, 2 weeks of treatment): significant reduction
